What follows are compounds tested on HCI-016 (organoid from a triple-negative breast cancer xenograft) (assay: CTG-3D luminescence at 96 h relative to day-0 seeding control (ratio to day 0); higher = more growth / less cytotoxicity; PDxO 3D drug screen, 96 h, CTG-3D normalised to day-0 seeding control.). Conditions: 100 µM; days in culture: 153.

| Structure (SMILES) | CTG-3D luminescence at 96 h |
| --- | --- |
| COc1cc2c(Oc3ccc4[nH]c(C)cc4c3F)ncnc2cc1OCCCN1CCCC1 [cediranib] | -0.00356 |
| CC(C)n1nc(-c2ccc3oc(N)nc3c2)c2c(N)ncnc21 [sapanisertib] | 0.0999 |
| Cc1cc(Nc2ncnc3ccc(NC4=NC(C)(C)CO4)cc23)ccc1Oc1ccn2ncnc2c1 [tucatinib] | 0.013 |
| C[C@H](NC(=O)CCC(F)(F)F)C(=O)N[C@@H]1C(=O)N(CCO)c2ncccc2-c2ccccc21 [crenigacestat] | 2.19 |
| C[C@]12CC[C@@H]3c4ccc(O)cc4C[C@@H](CCCCCCCCC[S+]([O-])CCCC(F)(F)C(F)(F)F)[C@H]3[C@@H]1CC[C@@H]2O (some centres not stated) [fulvestrant] | 1.86 |
| O=C(c1ccc(F)c(F)c1Nc1ccc(I)cc1F)N1CC(O)([C@@H]2CCCCN2)C1 [cobimetinib] | 0.0036 |
| O=C(/C=C/c1cccnc1)NCCCCC1CCN(C(=O)c2ccccc2)CC1 [FK866] | 0.0183 |
| CS(=O)(=O)c1ccc(C(=O)Nc2ccc(Cl)c(-c3ccccn3)c2)c(Cl)c1 [vismodegib] | 0.626 |
| C=CCn1c(=O)c2cnc(Nc3ccc(N4CCN(C)CC4)cc3)nc2n1-c1cccc(C(C)(C)O)n1 [adavosertib] | 0.0508 |

Same assay, conditions: 100 µM; days in culture: 172

| Structure (SMILES) | CTG-3D luminescence at 96 h |
| --- | --- |
| COc1cc2c(Oc3ccc4[nH]c(C)cc4c3F)ncnc2cc1OCCCN1CCCC1 [cediranib] | -0.000672 |
| CC(C)n1nc(-c2ccc3oc(N)nc3c2)c2c(N)ncnc21 [sapanisertib] | 0.191 |
| Cc1cc(Nc2ncnc3ccc(NC4=NC(C)(C)CO4)cc23)ccc1Oc1ccn2ncnc2c1 [tucatinib] | 0.0152 |
| C[C@H](NC(=O)CCC(F)(F)F)C(=O)N[C@@H]1C(=O)N(CCO)c2ncccc2-c2ccccc21 [crenigacestat] | 1.76 |
| C[C@]12CC[C@@H]3c4ccc(O)cc4C[C@@H](CCCCCCCCC[S+]([O-])CCCC(F)(F)C(F)(F)F)[C@H]3[C@@H]1CC[C@@H]2O (some centres not stated) [fulvestrant] | 1.63 |
| O=C(c1ccc(F)c(F)c1Nc1ccc(I)cc1F)N1CC(O)([C@@H]2CCCCN2)C1 [cobimetinib] | 0.0013 |
| O=C(/C=C/c1cccnc1)NCCCCC1CCN(C(=O)c2ccccc2)CC1 [FK866] | 0.022 |
| CS(=O)(=O)c1ccc(C(=O)Nc2ccc(Cl)c(-c3ccccn3)c2)c(Cl)c1 [vismodegib] | 0.75 |
| C=CCn1c(=O)c2cnc(Nc3ccc(N4CCN(C)CC4)cc3)nc2n1-c1cccc(C(C)(C)O)n1 [adavosertib] | 0.0492 |

Same assay, conditions: 100 µM; days in culture: 190

| Structure (SMILES) | CTG-3D luminescence at 96 h |
| --- | --- |
| COc1cc2c(Oc3ccc4[nH]c(C)cc4c3F)ncnc2cc1OCCCN1CCCC1 [cediranib] | 5.93e-05 |
| CC(C)n1nc(-c2ccc3oc(N)nc3c2)c2c(N)ncnc21 [sapanisertib] | 0.149 |
| Cc1cc(Nc2ncnc3ccc(NC4=NC(C)(C)CO4)cc23)ccc1Oc1ccn2ncnc2c1 [tucatinib] | 0.0124 |
| C[C@H](NC(=O)CCC(F)(F)F)C(=O)N[C@@H]1C(=O)N(CCO)c2ncccc2-c2ccccc21 [crenigacestat] | 1.74 |
| C[C@]12CC[C@@H]3c4ccc(O)cc4C[C@@H](CCCCCCCCC[S+]([O-])CCCC(F)(F)C(F)(F)F)[C@H]3[C@@H]1CC[C@@H]2O (some centres not stated) [fulvestrant] | 1.07 |
| O=C(c1ccc(F)c(F)c1Nc1ccc(I)cc1F)N1CC(O)([C@@H]2CCCCN2)C1 [cobimetinib] | 0.00248 |
| O=C(/C=C/c1cccnc1)NCCCCC1CCN(C(=O)c2ccccc2)CC1 [FK866] | 0.037 |
| CS(=O)(=O)c1ccc(C(=O)Nc2ccc(Cl)c(-c3ccccn3)c2)c(Cl)c1 [vismodegib] | 0.376 |
| C=CCn1c(=O)c2cnc(Nc3ccc(N4CCN(C)CC4)cc3)nc2n1-c1cccc(C(C)(C)O)n1 [adavosertib] | 0.0792 |

Same assay, conditions: 100 µM; days in culture: 199

| Structure (SMILES) | CTG-3D luminescence at 96 h |
| --- | --- |
| COc1cc2c(Oc3ccc4[nH]c(C)cc4c3F)ncnc2cc1OCCCN1CCCC1 [cediranib] | -0.0032 |
| CC(C)n1nc(-c2ccc3oc(N)nc3c2)c2c(N)ncnc21 [sapanisertib] | 0.119 |
| Cc1cc(Nc2ncnc3ccc(NC4=NC(C)(C)CO4)cc23)ccc1Oc1ccn2ncnc2c1 [tucatinib] | 0.019 |
| C[C@H](NC(=O)CCC(F)(F)F)C(=O)N[C@@H]1C(=O)N(CCO)c2ncccc2-c2ccccc21 [crenigacestat] | 1.73 |
| C[C@]12CC[C@@H]3c4ccc(O)cc4C[C@@H](CCCCCCCCC[S+]([O-])CCCC(F)(F)C(F)(F)F)[C@H]3[C@@H]1CC[C@@H]2O (some centres not stated) [fulvestrant] | 1.44 |
| O=C(c1ccc(F)c(F)c1Nc1ccc(I)cc1F)N1CC(O)([C@@H]2CCCCN2)C1 [cobimetinib] | 0.00262 |
| O=C(/C=C/c1cccnc1)NCCCCC1CCN(C(=O)c2ccccc2)CC1 [FK866] | 0.0134 |
| CS(=O)(=O)c1ccc(C(=O)Nc2ccc(Cl)c(-c3ccccn3)c2)c(Cl)c1 [vismodegib] | 0.655 |
| C=CCn1c(=O)c2cnc(Nc3ccc(N4CCN(C)CC4)cc3)nc2n1-c1cccc(C(C)(C)O)n1 [adavosertib] | 0.0372 |

Same assay, conditions: 625 fM; days in culture: 153

| Structure (SMILES) | CTG-3D luminescence at 96 h |
| --- | --- |
| COc1cc2c(Oc3ccc4[nH]c(C)cc4c3F)ncnc2cc1OCCCN1CCCC1 [cediranib] | 2.44 |
| CC(C)n1nc(-c2ccc3oc(N)nc3c2)c2c(N)ncnc21 [sapanisertib] | 3.03 |
| Cc1cc(Nc2ncnc3ccc(NC4=NC(C)(C)CO4)cc23)ccc1Oc1ccn2ncnc2c1 [tucatinib] | 1.94 |
| C[C@H](NC(=O)CCC(F)(F)F)C(=O)N[C@@H]1C(=O)N(CCO)c2ncccc2-c2ccccc21 [crenigacestat] | 2.92 |
| C[C@]12CC[C@@H]3c4ccc(O)cc4C[C@@H](CCCCCCCCC[S+]([O-])CCCC(F)(F)C(F)(F)F)[C@H]3[C@@H]1CC[C@@H]2O (some centres not stated) [fulvestrant] | 2.61 |
| O=C(c1ccc(F)c(F)c1Nc1ccc(I)cc1F)N1CC(O)([C@@H]2CCCCN2)C1 [cobimetinib] | 2.59 |
| O=C(/C=C/c1cccnc1)NCCCCC1CCN(C(=O)c2ccccc2)CC1 [FK866] | 2.29 |
| CS(=O)(=O)c1ccc(C(=O)Nc2ccc(Cl)c(-c3ccccn3)c2)c(Cl)c1 [vismodegib] | 2.46 |
| C=CCn1c(=O)c2cnc(Nc3ccc(N4CCN(C)CC4)cc3)nc2n1-c1cccc(C(C)(C)O)n1 [adavosertib] | 3.11 |

Same assay, conditions: 625 fM; days in culture: 172

| Structure (SMILES) | CTG-3D luminescence at 96 h |
| --- | --- |
| COc1cc2c(Oc3ccc4[nH]c(C)cc4c3F)ncnc2cc1OCCCN1CCCC1 [cediranib] | 1.64 |
| CC(C)n1nc(-c2ccc3oc(N)nc3c2)c2c(N)ncnc21 [sapanisertib] | 1.68 |
| Cc1cc(Nc2ncnc3ccc(NC4=NC(C)(C)CO4)cc23)ccc1Oc1ccn2ncnc2c1 [tucatinib] | 1.3 |
| C[C@H](NC(=O)CCC(F)(F)F)C(=O)N[C@@H]1C(=O)N(CCO)c2ncccc2-c2ccccc21 [crenigacestat] | 1.73 |
| C[C@]12CC[C@@H]3c4ccc(O)cc4C[C@@H](CCCCCCCCC[S+]([O-])CCCC(F)(F)C(F)(F)F)[C@H]3[C@@H]1CC[C@@H]2O (some centres not stated) [fulvestrant] | 1.6 |
| O=C(c1ccc(F)c(F)c1Nc1ccc(I)cc1F)N1CC(O)([C@@H]2CCCCN2)C1 [cobimetinib] | 1.63 |
| O=C(/C=C/c1cccnc1)NCCCCC1CCN(C(=O)c2ccccc2)CC1 [FK866] | 1.55 |
| CS(=O)(=O)c1ccc(C(=O)Nc2ccc(Cl)c(-c3ccccn3)c2)c(Cl)c1 [vismodegib] | 2.02 |
| C=CCn1c(=O)c2cnc(Nc3ccc(N4CCN(C)CC4)cc3)nc2n1-c1cccc(C(C)(C)O)n1 [adavosertib] | 1.62 |

Same assay, conditions: 625 fM; days in culture: 190

| Structure (SMILES) | CTG-3D luminescence at 96 h |
| --- | --- |
| COc1cc2c(Oc3ccc4[nH]c(C)cc4c3F)ncnc2cc1OCCCN1CCCC1 [cediranib] | 1.13 |
| CC(C)n1nc(-c2ccc3oc(N)nc3c2)c2c(N)ncnc21 [sapanisertib] | 1.23 |
| Cc1cc(Nc2ncnc3ccc(NC4=NC(C)(C)CO4)cc23)ccc1Oc1ccn2ncnc2c1 [tucatinib] | 1.1 |
| C[C@H](NC(=O)CCC(F)(F)F)C(=O)N[C@@H]1C(=O)N(CCO)c2ncccc2-c2ccccc21 [crenigacestat] | 0.976 |
| C[C@]12CC[C@@H]3c4ccc(O)cc4C[C@@H](CCCCCCCCC[S+]([O-])CCCC(F)(F)C(F)(F)F)[C@H]3[C@@H]1CC[C@@H]2O (some centres not stated) [fulvestrant] | 1.14 |
| O=C(c1ccc(F)c(F)c1Nc1ccc(I)cc1F)N1CC(O)([C@@H]2CCCCN2)C1 [cobimetinib] | 1.37 |
| O=C(/C=C/c1cccnc1)NCCCCC1CCN(C(=O)c2ccccc2)CC1 [FK866] | 1.08 |
| CS(=O)(=O)c1ccc(C(=O)Nc2ccc(Cl)c(-c3ccccn3)c2)c(Cl)c1 [vismodegib] | 1.7 |
| C=CCn1c(=O)c2cnc(Nc3ccc(N4CCN(C)CC4)cc3)nc2n1-c1cccc(C(C)(C)O)n1 [adavosertib] | 1.02 |

Same assay, conditions: 625 fM; days in culture: 199

| Structure (SMILES) | CTG-3D luminescence at 96 h |
| --- | --- |
| COc1cc2c(Oc3ccc4[nH]c(C)cc4c3F)ncnc2cc1OCCCN1CCCC1 [cediranib] | 1.73 |
| CC(C)n1nc(-c2ccc3oc(N)nc3c2)c2c(N)ncnc21 [sapanisertib] | 1.63 |
| Cc1cc(Nc2ncnc3ccc(NC4=NC(C)(C)CO4)cc23)ccc1Oc1ccn2ncnc2c1 [tucatinib] | 1.83 |
| C[C@H](NC(=O)CCC(F)(F)F)C(=O)N[C@@H]1C(=O)N(CCO)c2ncccc2-c2ccccc21 [crenigacestat] | 1.76 |
| C[C@]12CC[C@@H]3c4ccc(O)cc4C[C@@H](CCCCCCCCC[S+]([O-])CCCC(F)(F)C(F)(F)F)[C@H]3[C@@H]1CC[C@@H]2O (some centres not stated) [fulvestrant] | 2.07 |
| O=C(c1ccc(F)c(F)c1Nc1ccc(I)cc1F)N1CC(O)([C@@H]2CCCCN2)C1 [cobimetinib] | 1.78 |
| O=C(/C=C/c1cccnc1)NCCCCC1CCN(C(=O)c2ccccc2)CC1 [FK866] | 1.79 |
| CS(=O)(=O)c1ccc(C(=O)Nc2ccc(Cl)c(-c3ccccn3)c2)c(Cl)c1 [vismodegib] | 2.15 |
| C=CCn1c(=O)c2cnc(Nc3ccc(N4CCN(C)CC4)cc3)nc2n1-c1cccc(C(C)(C)O)n1 [adavosertib] | 1.43 |
